Reference: patent publication US12365658B2, “Benzothia(di)azepine compounds and their use as bile acid modulators” (Albireo AB, priority 2021, dated 2025)

Columns and labels:
[1] = Bidirectional permeability assay (Caco-2 cells); assay type: in vitro ADME; conditions: human, 10 μM in FaSSIF buffer; for Papp A→B at 120 min, 10 μM: Caco-2, pH 7.4, absorptive direction (A2B); for Papp B→A at 120 min, 10 μM: Caco-2, pH 7.4, secretory direction (B2A)
Experimental: Bidirectional Permeability Assay (Caco-2 Cells)
Caco-2 cells (Evotec) were seeded at a density of 70,000 cells/well in Millicell® 24-well cell culture insert plates and maintained in an incubator (37° C., 5% CO2, 95% RH) for 21 days with media change on alternate days.
Stock solutions (10 mM) of the test compounds, atenolol (low permeability marker), propranolol (high permeability marker) and digoxin (substrate for P-gp transport pathway) were prepared in dimethylsulfoxide (DMSO). An intermediate stock solution (1 mM) was prepared by diluting 10 μL of 10 mM master stock solution with 90 μL of neat DMSO. A working stock solution (10 μM) was prepared by diluting 50 μL of 1 mM with 4950 μL of FaSSIF buffer. Post addition of compounds to the FaSSIF, samples were subjected to sonication for 2 hours, and centrifuged at 4000 RPM for 30 minutes at 37° C. The 4 mL of resultant supernatant was directly used in the assay. The final DMSO concentration in the transport experiments was 1%.
On the day of assay, Caco-2 monolayers were washed twice with transport buffer (HBSS, pH 7.4) and pre-incubated for 30 min (37° C., 5% CO2, 95% RH) in an incubator. The electrical resistance of the monolayers was measured with a Millicell®-ERS system. Monolayers with trans-epithelial electrical resistance (TEER) values greater than 350 ohm·cm^2 were selected for the assay.
The assay was conducted in absorptive direction (A2B) and secretory (B2A) directions. Transport experiments were initiated by addition of transport assay buffer (FaSSIF buffer prepared in HBSS) consisting of compounds to the donor compartment (apical chamber A-B; basolateral chamber B-A) in duplicate (n=2) wells. Drug free HBSS buffer (pH 7.4) containing 1% bovine serum albumin (BSA) was introduced to the receiver (A-B-basolateral; B-A-Apical) compartments. The volumes of apical and basolateral compartments were 0.4 and 0.8 mL, respectively. After adding dosing solution, plates were incubated in an incubator for 120 minutes at 37° C. After 120 minutes, donor and receiver samples were collected and matrix matched (1:1, 30 μL study sample+30 μL blank buffer) with the opposite buffer. Dosing samples matrix matched (1:1, 30 μL study sample+30 μL blank buffer) with the opposite buffer. Samples were processed by adding acetonitrile containing internal standard (60 μL study sample+200 μL acetonitrile containing internal standard-Tolbutamide, 500 ng/mL). Samples were vortexed and centrifuged at 4000 rpm for 10 minutes. The obtained supernatant (100 μL) was diluted with 100 μL of water and transferred to fresh 96 well plates. The concentration of compounds in the samples was analyzed by liquid chromatography tandem mass spectrometry (LC-MS/MS) method using discovery grade bio-analytical method, as applicable.
The mean apparent permeability (Papp, ×10^−6 cm/sec) of the test compounds, atenolol, propranolol and digoxin were calculated as follows:
where dq/dt=rate of transport (rate of transport of compound in the receiver compartment), C0=initial concentration in the donor compartment, A=surface area of the effective filter membrane.

Human IBAT = target: T1, Human IBAT (Homo sapiens, UniProt Q12908); assay: IBAT (h/m) assay, human IBAT-overexpressing cells, 3H-taurocholic acid uptake; assay type: cell-based; conditions: 0.25 μM 3H-taurocholic acid and 5 μM cold taurocholic acid, 20 minutes, highest test concentration 10 μM, read-out: hIBAT IC50
T1 construct: expressed in transfected cells; kept under Puromycin selection
T1 sequence (Q12908 1-348): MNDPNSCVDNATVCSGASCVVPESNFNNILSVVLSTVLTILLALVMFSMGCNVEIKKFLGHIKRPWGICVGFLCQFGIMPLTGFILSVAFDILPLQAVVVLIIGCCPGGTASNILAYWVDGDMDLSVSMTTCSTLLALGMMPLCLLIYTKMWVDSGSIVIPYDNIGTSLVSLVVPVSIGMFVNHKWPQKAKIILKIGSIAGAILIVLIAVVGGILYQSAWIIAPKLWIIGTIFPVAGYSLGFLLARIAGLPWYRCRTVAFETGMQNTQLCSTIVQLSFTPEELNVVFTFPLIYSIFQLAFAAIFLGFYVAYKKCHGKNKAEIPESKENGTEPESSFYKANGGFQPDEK
Experimental: IBAT (h/m) Assay Protocol
10,000 cells (Human or Mouse IBAT-overexpressing cells) were seeded in 96-wells plate (Corning CLS3809) in 200 μL MEM-alpha medium (Gibco 12571-063) supplemented with 10% FBS (Gibco 10438026) containing Puromycin (Gibco A1113803) (10 μg/mL) and incubated at 37° C. in 5% CO2 for 48 hours. After incubation, media was decanted from the wells and cells were washed two times with 300 μL of basal MEM-alpha medium (FBS-free). After decanting basal MEM-alpha medium each time, plates were tapped against paper towel to ensure maximum removal of residual media. Test inhibitor dilutions (highest test concentration being 10 μM, 3-fold serial dilution, 10 points) prepared in DMSO (Sigma D2650) were added in incubation mix (maintaining 0.2% final DMSO concentration) containing 0.25 μM 3H-taurocholic acid (ARC ART-1368) and 5 μM of cold taurocholic acid (Sigma T4009). 50 μL of incubation mix containing test inhibitors was then added to the wells (in duplicate) and the plates were incubated for 20 minutes in a CO2 incubator at 37° C. After incubation, the reaction was stopped by keeping the plates on ice water mix for 2-3 minutes and then the incubation mix was aspirated completely from the wells. The wells were washed two times with 250 μL of chilled unlabelled 1 mM taurocholic acid dissolved in HEPES (Gibco 15630080)-buffered (10 mM) HBSS (Gibco 14175079) (pH 7.4). The plates were tapped against a paper towel after every wash to ensure maximum removal of blocking buffer.
100 μL of MicroScint-20 (PerkinElmer 6013621) was added to the wells and kept overnight at room temperature before reading the plates in TopCount NXT™ Microplate Scintillation and Luminescence Counter from PerkinElmer under 3H Test protocol (set at 120 seconds reading time per well).
Preparation of Test Compound Dilutions
All test compounds were provided in powder form at room temperature. 10 mM DMSO stocks of the test compounds were prepared, aliquoted and stored at −20° C. From the 10 mM DMSO stock of the compounds, a 3-fold serial dilution in DMSO was prepared to get a total of 10 dilutions of the test compounds. 0.5 μL of this dilution in DMSO was added to 250 μL of FBS-free basal media containing 3H-taurocholic acid and cold taurocholic acid to prepare the incubation mixture.

Papp A→B at 120 min, 10 μM [1] | Papp B→A at 120 min, 10 μM [1] | IC50 (Human IBAT) | SMILES
10.8 ×10⁻⁶ cm/s | 8.6 ×10⁻⁶ cm/s | 360 nM | CCCCC1CN(c2ccc(F)cc2)c2cc(SC)c(OCC(C)(C)C(=O)O)cc2S(=O)(=O)N1C (centres unmarked) [Example 13, 3-((3-butyl-5-(4-fluorophenyl)-2-methyl-7-(methylthio)-1,1-dioxido-2,3,4,5-tetrahydro-1,2,5-benzothiadiazepin-8-yl)oxy)-2,2-dimethylpropanoic acid]
8.1 ×10⁻⁶ cm/s | 3.8 ×10⁻⁶ cm/s | 405 nM | CCCCC1CN(c2ccccc2)c2cc(SCC)c(OCC3(C(=O)O)CC3)cc2S(=O)(=O)N1C (centres unmarked) [Example 7, 1-(((3-Butyl-7-(ethylthio)-2-methyl-1,1-dioxido-5-phenyl-2,3,4,5-tetrahydro-1,2,5-benzothiadiazepin-8-yl)oxy)methyl)cyclopropane-1-carboxylic acid]
10.6 ×10⁻⁶ cm/s | 30.2 ×10⁻⁶ cm/s | 257 nM | CCCCC1CN(c2ccccc2)c2cc(SC)c(OCC(C)(OC)C(=O)O)cc2S(=O)(=O)N1C (single isomer, unassigned) [Example 23, 3-((3-Butyl-2-methyl-7-(methylthio)-1,1-dioxido-5-phenyl-2,3,4,5-tetrahydro-1,2,5-benzothiadiazepin-8-yl)oxy)-2-methoxy-2-methylpropanoic acid]
2.2 ×10⁻⁶ cm/s | 4.3 ×10⁻⁶ cm/s | 117 nM | CCCCC1CN(c2ccc(F)cc2)c2cc(SCC)c(OCC(O)C(=O)O)cc2S(=O)(=O)N1C (centres unmarked) [Example 33, 3-((3-butyl-7-(ethylthio)-5-(4-fluorophenyl)-2-methyl-1,1-dioxido-2,3,4,5-tetrahydro-1,2,5-benzothiadiazepin-8-yl)oxy)-2-hydroxypropanoic acid]
15.8 ×10⁻⁶ cm/s | 5 ×10⁻⁶ cm/s | 166 nM | CCCCC1CN(c2ccccc2)c2cc(SCC)c(OCC3(C(=O)O)CC3)cc2S(=O)(=O)N1C (single isomer, unassigned) [8, enantiomer 1]
 |  | 1030 nM | CCCCC1CN(c2ccccc2)c2cc(SC)c(OCC(C)(OC)C(=O)O)cc2S(=O)(=O)N1C (single isomer, unassigned) [24, diastereomer 1]
11.7 ×10⁻⁶ cm/s | 21.5 ×10⁻⁶ cm/s | 428 nM | CCCCC1CN(c2ccccc2)c2cc(SC)c(OCC(C)(OC)C(=O)O)cc2S(=O)(=O)N1C (centres unmarked) [Example 22, 3-((3-Butyl-2-methyl-7-(methylthio)-1,1-dioxido-5-phenyl-2,3,4,5-tetrahydro-1,2,5-benzothiadiazepin-8-yl)oxy)-2-methoxy-2-methylpropanoic acid]
 |  | 412 nM | CCCCC1CN(c2ccccc2)c2cc(SC)c(OCC(C)(OC)C(=O)O)cc2S(=O)(=O)N1C (single isomer, unassigned) [24, diastereomer 2]
8.6 ×10⁻⁶ cm/s | 6.5 ×10⁻⁶ cm/s | 290 nM | CCCCC1CN(c2ccccc2)c2cc(SCC)c(OCC(C)(C)C(=O)O)cc2S(=O)(=O)N1C (single isomer, unassigned) [6, enantiomer 2]
9.4 ×10⁻⁶ cm/s | 7.2 ×10⁻⁶ cm/s | 615 nM | CCCCC1CN(c2ccccc2)c2cc(SCC)c(OCC(C)(C)C(=O)O)cc2S(=O)(=O)N1C (centres unmarked) [Example 5, 3-((3-Butyl-7-(ethylthio)-2-methyl-1,1-dioxido-5-phenyl-2,3,4,5-tetrahydro-1,2,5-benzothiadiazepin-8-yl)oxy)-2,2-dimethylpropanoic acid]
20.8 ×10⁻⁶ cm/s | 12.9 ×10⁻⁶ cm/s | 274 nM | CCCCC1CN(c2ccccc2)c2cc(SC)c(OCC3(C(=O)O)CC3)cc2S(=O)(=O)N1C (centres unmarked) [Example 3, 1-(((3-Butyl-2-methyl-7-(methylthio)-1,1-dioxido-5-phenyl-2,3,4,5-tetrahydro-1,2,5-benzothiadiazepin-8-yl)oxy)methyl)cyclopropane-1-carboxylic acid]
18.8 ×10⁻⁶ cm/s | 13 ×10⁻⁶ cm/s | 294 nM | CCCCC1CN(c2ccccc2)c2cc(SC)c(OCC3(C(=O)O)CC3)cc2S(=O)(=O)N1C (single isomer, unassigned) [4, enantiomer 2]
13.2 ×10⁻⁶ cm/s | 15.2 ×10⁻⁶ cm/s | 682 nM | CCCCC1CN(c2ccccc2)c2cc(SC)c(OCC(C)(C)C(=O)O)cc2S(=O)(=O)N1C (single isomer, unassigned) [2, enantiomer 2]
5.2 ×10⁻⁶ cm/s | 15.9 ×10⁻⁶ cm/s | 2400 nM | CCCCC1CN(c2ccccc2)c2cc(SC)c(OCC(OC)C(=O)O)cc2S(=O)(=O)N1C (single isomer, unassigned) [32, diastereomer 1]
